IC50 data for 33 compounds are collected here from US8822495B2, “Azacyclyl-substituted aryldihydroisoquinolinones, process for their preparation and their use as medicaments” (Sanofi, priority 2006, dated 2014).

SMILES strings stand for the structures.

The assay deals with T1, human MCH receptor (Homo sapiens, UniProt Q99705).
T1 construct: expressed in transfected cells
T1 sequence (Q99705 whole entry): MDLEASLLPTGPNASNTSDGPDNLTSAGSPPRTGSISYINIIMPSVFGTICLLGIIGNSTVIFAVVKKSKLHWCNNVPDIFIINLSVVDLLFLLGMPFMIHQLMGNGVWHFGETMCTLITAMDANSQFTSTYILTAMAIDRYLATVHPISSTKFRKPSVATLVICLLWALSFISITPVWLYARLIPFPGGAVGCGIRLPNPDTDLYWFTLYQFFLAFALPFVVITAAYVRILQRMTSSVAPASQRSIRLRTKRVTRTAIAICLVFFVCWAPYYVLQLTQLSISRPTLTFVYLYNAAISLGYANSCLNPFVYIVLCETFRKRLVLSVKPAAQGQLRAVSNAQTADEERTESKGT
Kind of assay: functional IC50 of MCH1R antagonists: cellular calcium flux (FLIPR), called calcium immobilization assay. The format is cell-based. The conditions noted are these: calcium flux after addition of agonist (MCH), recombinant HEK293 cell line expressing the human MCH receptor. The source says:
Influence on the MCH receptor in vitro; determination of functional IC50 values of MCH1R antagonists
Cloning of the cDNA for the human MCH receptor, preparation of a recombinant HEK293 cell line which expresses the human MCH receptor, and functional measurements with the recombinant cell line took place in analogy to the description by Audinot et al. (J. Biol. Chem. 276, 13554-13562, 2001). A difference from the reference was, however, the use of the plasmid pEAK8 from EDGE Biosystems (USA) for the construction of the expression vector. The host used for the transfection was a transformed HEK cell line named “PEAK Stable Cells” (likewise from EDGE Biosystems). Functional measurements of the cellular calcium flux after addition of agonist (MCH) in the presence of ligand of the invention took place with the aid of the FLIPR apparatus from Molecular Devices (USA), using protocols of the apparatus manufacturer. The compounds of the invention show a significant inhibition (>30%) of the signal induced by the agonist at a concentration of 100 μM, preferably at 10 μM, particularly preferably at 1 μM, very particularly preferably at 100 nM and even more particularly preferably at 10 nM.
`CO[C@@H]1CN(c2ccc(-n3ccc4cc(OC[C@H]5CCCO5)ccc4c3=O)cc2F)C[C@H]1N(C)C` (relative stereo) [Example 353, 2-[4-((3R*,4R*)-3-Dimethylamino-4-methoxy-pyrrolidin-1-yl)-3-fluorophenyl]-6-[(R)-1-(tetrahydrofuran-2-yl)methoxy]-2H-isoquinolin-1-one]: the half-inhibitory concentration (IC50) was 23.8 µM.
Regarding `CCCCOc1ccc2c(c1)CCN(c1ccc(N3CCC(N(C)C)C3)c(Cl)c1)C2=O` (stereo not drawn) [Example 1, 6-Butoxy-2-[3-chloro-4-(3-dimethylaminopyrrolidin-1-yl)phenyl]-3,4-dihydro-2H-isoquinolin-1-one], the IC50 came out at 0.99 µM.
`CCCCOc1ccc2c(c1)CCN(c1ccc(N3CC[C@@H](N(C)CCS(C)(=O)=O)C3)c(F)c1)C2=O` [Example 14, 6-Butoxy-2-(3-fluoro-4-{(R)-3-[(2-methanesulfonylethyl)methylamino]pyrrolidin-1-yl}phenyl)-3,4-dihydro-2H-isoquinolin-1-one]: the IC50 amounted to 1.07 µM.
Regarding `CC1CCN(c2ccc3c(c2)CCN(c2ccc(N4CC[C@@H](N(C)C)C4)c(F)c2)C3=O)CC1` [Example 24, 2-[4-((R)-3-Dimethylaminopyrrolidin-1-yl)-3-fluorophenyl]-6-(4-methylpiperidin-1-yl)-3,4-dihydro-2H-isoquinolin-1-one], the 50% inhibitory concentration (IC50) was 1.19 µM.
To `CCCCOc1ccc2c(c1)CCN(c1ccc(N3CCC(N4CCN(C(C)=O)CC4)C3)cc1)C2=O` (stereo not drawn) [Example 39, 2-{4-[3-(4-Acetylpiperazin-1-yl)pyrrolidin-1-yl]phenyl}-6-butoxy-3,4-dihydro-2H-isoquinolin-1-one] belongs 0.23 µM.
Regarding `CCCCOc1ccc2c(c1)CCN(c1ccc(N3CCC(NCCCN4CCCC4=O)C3)cc1)C2=O` (stereo not drawn) [Example 45], the IC50 came out at 0.22 µM.
As for `CN[C@@H]1CCN(c2ccc(N3CCc4cc(OC5CC(C)OC5=O)ccc4C3=O)cc2F)C1` (stereo partly drawn) [Example 84], the IC50 amounted to 6.24 µM.
As to `CC(C)C(=O)Nc1ccc2c(c1)CCN(c1ccc(N3CC[C@@H](N(C)C)C3)c(F)c1)C2=O` [Example 95], the IC50 was 3.41 µM.
Consider `CN(C)[C@@H]1CCN(c2ccc(N3CCc4cc(N5C[C@H]6CCCN6C5=O)ccc4C3=O)cc2F)C1` [Example 99], for which the IC50 was determined as 1.68 µM.
The figure for `CC(O)CCNc1ccc2c(c1)CCN(c1ccc(N3CC[C@@H](N(C)C)C3)c(F)c1)C2=O` (stereo partly drawn) [Example 106] is 4.21 µM; for `CC1=C(C)C(=O)N(c2ccc3c(c2)CCN(c2ccc(N4CC[C@@H](N(C)C)C4)c(F)c2)C3=O)C1` [Example 112] it is 7.54 µM.
The figure for `C[C@@H](O)C#Cc1ccc2c(=O)n(-c3ccc(N4CC[C@@H](N5CCCC5)C4)c(F)c3)ccc2c1` [Example 136] is 0.1 µM.
The figure for `O=c1c2ccc(OCC(O)C(F)(F)F)cc2ccn1-c1ccc(N2CC[C@@H](N3CCCC3)C2)c(F)c1` (stereo partly drawn) [Example 154] is 0.18 µM; for `CC1(O)CCCC1Oc1ccc2c(=O)n(-c3ccc(N4CC[C@@H](N5CCCC5)C4)c(F)c3)ccc2c1` (stereo partly drawn) [Example 168] it is 1.39 µM.
Regarding `CC[C@H](O)COc1ccc2c(c1)CCN(c1ccc(N3CC[C@]4(CCN(CCCF)C4)C3)cc1)C2=O` [Example 176], the IC50 was found to be 0.31 µM.
The figure for `CC1CCOC1COc1ccc2c(=O)n(-c3ccc(N4CC[C@@H](N5CCCC5)C4)c(F)c3)ccc2c1` (stereo partly drawn) [Example 202] is 0.5 µM; for `CC(C)(O)CN1CC[C@]2(CCN(c3ccc(N4CCc5cc(OC[C@@H]6CCCO6)ccc5C4=O)cc3)C2)C1` [Example 206] it is 0.2 µM.
For the compound `O=c1c2ccc(OCCCF)cc2ccn1-c1ccc(N2CC[C@]3(CCN(CCCF)C3)C2)cc1` [Example 210], the IC50 is 0.36 µM.
The figure for `CN(C)[C@@H]1CCN(c2ccc(N3CCc4cc(OC5CCC(O)C5)ccc4C3=O)cc2F)C1` (stereo partly drawn) [Example 219] is 1.46 µM; for `CN(C)[C@@H]1CCN(c2ccc(N3CCc4cc(OCC5(C)COC5)ccc4C3=O)cc2F)C1` [Example 224] it is 1.42 µM; for `O=C1CCCN1CCOc1ccc2c(=O)n(-c3ccc(N4CC[C@@H](N5CCCC5)C4)c(F)c3)ccc2c1` [Example 246] it is 13 µM.
To `CC(O)CCOc1ccc2c(=O)n(-c3ccc(N4CC[C@@H](N5CCCC5)C4)c(F)c3)ccc2c1` (stereo partly drawn) [Example 251] belongs 0.41 µM.
Regarding `O=C1c2ccc(OC[C@@H]3CCCO3)cc2CCN1c1ccc(N2CCC(N3CC4CCC4C3)C2)c(F)c1` (stereo partly drawn) [Example 264], the IC50 is 0.59 µM.
Regarding `CC[C@H](O)COc1ccc2c(c1)CCN(c1ccc(N3CCC4CN(C)CC43)cc1)C2=O` (stereo partly drawn) [Example 287], the IC50 is 1.96 µM.
For `COCCCNC1CCN(c2ccc(-n3ccc4cc(OC[C@H]5CCCO5)ccc4c3=O)cc2F)C1` (stereo partly drawn) [Example 303], the IC50 was found to be 0.38 µM.
For `CC1(O)CCN(C2CCN(c3ccc(-n4ccc5cc(OC[C@H]6CCCO6)ccc5c4=O)cc3F)C2)CC1` (stereo partly drawn) [Example 321], the IC50 worked out at 0.15 µM.
The figure for `CN1C[C@H]2CCN(c3ccc(-n4ccc5cc(OC[C@@H]6CCCO6)ccc5c4=O)cc3)[C@H]2C1` [Example 324] is 0.2 µM.
The figure for `COc1cc(-n2ccc3cc(OC[C@@H]4CCCO4)ccc3c2=O)ccc1N1CCCN(C)CC1` [Example 326] is 0.22 µM.
To `CC(=O)N(C)C1CCCN(c2ccc(-n3ccc4cc(OC[C@@H]5CCCO5)ccc4c3=O)cc2)C1` (stereo partly drawn) [Example 327] belongs 3.69 µM; to `O=c1c2ccc(OC[C@H]3CCCO3)cc2ccn1-c1ccc(N2CCC3(CNCCO3)C2)c(F)c1` (stereo partly drawn) [Example 341], 1.6 µM.
For `CN1CC2(CCN(c3ccc(-n4ccc5cc(OC[C@H]6CCCO6)ccc5c4=O)cc3F)C2)C1` [Example 354], the concentration for half-maximal inhibition (IC50) amounted to 0.22 µM.
The figure for `CN(C)C1(C)CCN(c2ccc(-n3ccc4cc(OC[C@H]5CCCO5)ccc4c3=O)cc2F)C1` (stereo partly drawn) [Example 356, 2-[4-(3-Dimethylamino-3-methyl-pyrrolidin-1-yl)-3-fluorophenyl]-6-[(R)-1-(tetrahydrofuran-2-yl)methoxy]-2H-isoquinolin-1-one] is 1.14 µM; for `CN(C)[C@@H]1CCN(c2ccc(N3CCc4cc(C#CC(C)(C)O)sc4C3=O)cc2)C1` [Example 361] it is 2.56 µM.
